In US11603349B2, “Anti-fibrotic compounds” (Certa Therapeutics Pty Ltd, priority 2017, dated 2023):
Structures can show the parent of a compound that is named as a salt.

Experiments:
[1] = test system: TGF-β induced [14C]-proline incorporation in rat mesangial cells; test: [14C]-proline incorporation assay (collagen biosynthesis); type: cell-based; details: inhibition of TGF-β1 (1 ng/ml) induced [14C]-proline incorporation, IRMC cells
[2] = MTS tetrazolium reduction cell viability assay; details: rat, rat mesangial cells (1097/IRMC cells), TGF-β1 stimulated, CC50 (μM), vs 1% DMSO vehicle
[3] = Rattus norvegicus, Mesangial cell, 44 h

Row | SMILES | IC50 [1, 3] [µM] | IC50 ([1]; 44 hours) [µM] | CC50 at 48 h [2] [µM]
1 | COc1ccc(/C=C/C(=O)N2CCOc3ccccc32)c(OCCN(C)C)c1OC [Example 115, (E)-1-(2H-benzo[b][1,4]oxazin-4(3H)-yl)-3-(2-(2-(dimethylamino)ethoxy)-3,4-dimethoxyphenyl)-prop-2-en-1-one] | 7.03 |  | 45.4
2 | COc1ccc(/C=C/C(=O)Nc2cc(Cl)ccc2C(=O)O)c(OCCN(C)C)c1OC [Example 117, (E)-4-chloro-2-(3-(2-(2-(dimethylamino)ethoxy)-3,4-dimethoxyphenyl)acrylamido)benzoic Acid] | 21.4 |  | > 300
3 | COc1cc(/C=C/C(=O)N2CCOc3ccccc32)ccc1OC1CCN(C)C1 (stereo not shown) [Example 118, (E)-1-(2H-benzo[b][1,4]oxazin-4(3H)-yl)-3-(3-methoxy-4-((1-methylpyrrolidin-3-yl)oxy)phenyl)prop-2-en-1-one] | 14.3 |  | 25.5
4 | COc1ccc(C2CC2C(=O)Nc2ccc(F)cc2)c(OCCN(C)C)c1OC (stereo not shown) [Example 122, 2-(2-(2-(dimethylamino)ethoxy)-3,4-dimethoxyphenyl)-N-(4-fluorophenyl)cyclopropane-1-carboxamide] | 17.2 |  | 234
5 | C#CCOc1ccc(/C=C/C(=O)Nc2ccccc2F)cc1CC [Example 123, (E)-3-(3-ethyl-4-(prop-2-yn-1-yloxy)phenyl)-N-(2-fluorophenyl)acrylamide] | 19.3 |  | > 300
6 | C#CCOc1ccc(/C=C/C(=O)Nc2ccc(C#N)cc2)cc1CC [Example 124, (E)-N-(4-cyanophenyl)-3-(3-ethyl-4-(prop-2-yn-1-yloxy)phenyl)acrylamide] | 34.8 |  | > 300
7 | C#CCOc1ccc(/C=C/C(=O)Nc2ccc(F)cc2)cc1CC [Example 125, (E)-3-(3-ethyl-4-(prop-2-yn-1-yloxy)phenyl)-N-(4-fluorophenyl)acrylamide] | 17.6 |  | > 300
8 | C#CCOc1ccc(/C=C/C(=O)n2nc(O)c3ccccc32)cc1CC [Example 126, (E)-3-(3-ethyl-4-(prop-2-yn-1-yloxy)phenyl)-1-(3-hydroxy-1H-indazol-1-yl)prop-2-en-1-one] | 3.81 |  | > 27.5
9 | COc1ccc(/C=C/C(=O)Nc2ccccc2F)c(OCCN(C)C)c1OC [Example 127, (E)-3-(2-(2-(dimethylamino)ethoxy)-3,4-dimethoxyphenyl)-N-(2-fluorophenyl)acrylamide] | 35.4 |  | 82.9
10 | COc1ccc(/C=C/C(=O)Nc2ccc(F)cc2)c(OCCN(C)C)c1OC [Example 128, (E)-3-(2-(2-(dimethylamino)ethoxy)-3,4-dimethoxyphenyl)-N-(4-fluorophenyl)acrylamide trifluoroacetic acid salt] | 11.5 |  | 24.4
11 | COc1ccc(/C=C/C(=O)Nc2ccc(C#N)cc2)c(OCCN(C)C)c1OC [Example 129, (E)-N-(4-cyanophenyl)-3-(2-(2-(dimethylamino)ethoxy)-3,4-dimethoxyphenyl)acrylamide trifluoroacetic acid salt] | 12.3 |  | 28.9
12 | COc1cc(/C=C/C(=O)Nc2ccc(C#N)cc2)ccc1OC1CCN(C)C1 (stereo not shown) [Example 131, (E)-N-(4-cyanophenyl)-3-(3-methoxy-4-((1-methylpyrrolidin-3-yl)oxy)phenyl)acrylamide trifluoroacetic acid salt] | 21.6 |  | 17.7
13 | COc1cc(/C=C/C(=O)Nc2ccc(F)cc2)ccc1OC1CCN(C)C1 (stereo not shown) [Example 132, (E)-N-(4-fluorophenyl)-3-(3-methoxy-4-((1-methylpyrrolidin-3-yl)oxy)phenyl)actylamide trifluoroacetic acid salt] | 12 |  | 16.6
14 | COc1cc(/C=C/C(=O)Nc2cccc(Cl)c2)ccc1OCC1COC1 [Example 147, (E)-N-(3-chlorophenyl)-3-(3-methoxy-4-(oxetan-3-ylmethoxy)phenyl)acrylamide] | 39.1 |  | > 300
15 | COc1ccc(/C=C/C(=O)Nc2cccc(Cl)c2)cc1N1CCOCC1 [Example 151, (E)-N-(3-chlorophenyl)-3-(4-methoxy-3-morpholinophenyl)acrylamide] | 31.6 |  | > 300
16 | COc1cc(/C=C/C(=O)Nc2ccc(Cl)cc2)ccc1OCC1COC1 [Example 153, (E)-N-(4-chlorophenyl)-3-(3-methoxy-4-(oxetan-3-ylmethoxy)phenyl)acrylamide] | 35.4 |  | > 300
17 | C#CCOc1ccc(/C=C/C(=O)Nc2ccccc2C(=O)O)cc1OC [FT011, (E)-2-(3-(3-methoxy-4-(prop-2-yn-1-yloxy)phenyl)acrylamido)benzoic acid, reference compound] | 17 | 16 | 119

Now from value to compound, other results behind:

Row | IC50 [1, 3] [µM] | IC50 ([1]; 44 hours) [µM] | SMILES | CC50 at 48 h [2] [µM]
18 | 24.7 |  | C#CCOc1ccc(C2CC2C(=O)N2CCOc3ccccc32)cc1OC (stereo not shown) [Example 119, (2H-benzo[b][1,4]oxazin-4(3H)-yl)(2-(3-methoxy-4-(prop-2-yn-1-yloxy)phenyl)cyclopropyl) methanone] | 74.8
19 | 15.6 |  | COc1cc(/C=C/C(=O)Nc2ccccc2F)ccc1OC1CCN(C)C1 (stereo not shown) [Example 130, (E)-N-(2-fluorophenyl)-3-(3-methoxy-4-((1-methylpyrrolidin-3-yl)oxy)phenyl)acrylamide] | 51.8
20 | 23.4 |  | C#CCOc1ccc(C2CC2C(=O)Nc2ccc(F)cc2)cc1OC (stereo not shown) [Example 133, N-(4-fluorophenyl)-2-(3-methoxy-4-(prop-2-yn-1-yloxy)phenyl)cyclopropanecarboxamide] | > 300
21 | 17.5 |  | C#CCOc1ccc(C2CC2C(=O)n2nc(O)c3ccccc32)cc1OC (stereo not shown) [Example 134, (3-hydroxy-1H-indazol-1-yl)(2-(3-methoxy-4-(prop-2-yn-1-yloxy)phenyl)cyclopropyl)methanone] | > 300
22 | 45.3 |  | C#CCOc1ccc(C2CC2C(=O)Nc2ccc(C#N)cc2)cc1OC (stereo not shown) [Example 135, N-(4-cyanophenyl)-2-(3-methoxy-4-(prop-2-yn-1-yloxy)phenyl)cyclopropanecarboxamide] | > 300
23 | 4.13 |  | COc1cc(C2CC2C(=O)Nc2ccc(F)cc2)ccc1OC1CCN(C)C1 (stereo not shown) [Example 136, N-(4-fluorophenyl)-2-(3-methoxy-4-((1-methylpyrrolidin-3-yl)oxy)phenyl)cyclopropane-1-carboxamide] | 16.3
24 | 15.4 |  | COc1cc(C2CC2C(=O)Nc2ccc(C#N)cc2)ccc1OC1CCN(C)C1 (stereo not shown) [Example 137, N-(4-cyanophenyl)-2-(3-methoxy-4-((1-methylpyrrolidin-3-yl)oxy)phenyl)cyclopropane-1-carboxamide] | 30.8
25 | 11 |  | COc1cc(C2CC2C(=O)Nc2ccccc2F)ccc1OC1CCN(C)C1 (stereo not shown) [Example 138, N-(2-fluorophenyl)-2-(3-methoxy-4-((1-methylpyrrolidin-3-yl)oxy)phenyl)cyclopropane carboxamide] | 50.9
26 | 8.47 |  | COc1cc(C2CC2C(=O)Nc2cccc(Cl)c2)ccc1OCC1COC1 (stereo not shown) [Example 148, N-(3-chlorophenyl)-2-(3-methoxy-4-(oxetan-3-ylmethoxy)phenyl)cyclopropane-1-carboxamide] | 77.6
27 | 8.35 |  | COc1ccc(C2CC2C(=O)Nc2ccc(Cl)cc2)cc1OCc1cnn(C)c1 (stereo not shown) [Example 149, N-(4-chlorophenyl)-2-(4-methoxy-3-((1-methyl-1H-pyrazol-4-yl)methoxy)phenyl)cyclopropane-1-carboxamide] | > 54.8
28 | 4.08 |  | COc1ccc(/C=C/C(=O)Nc2cccnc2)cc1OCc1cnn(C)c1 [Example 150, (E)-3-(4-methoxy-3-((1-methyl-1H-pyrazol-4-yl)methoxy)phenyl)-N-(pyridin-3-yl)acrylamide] | > 31.6
29 | 38.2 |  | COc1cc(/C=C/C(=O)Nc2ccccc2Cl)ccc1OCC1COC1 [Example 152, (E)-N-(2-chlorophenyl)-3-(3-methoxy-4-(oxetan-3-ylmethoxy)phenyl)acrylamide] | > 300
30 | 8.97 |  | COc1cc(C2CC2C(=O)Nc2ccc(Cl)cc2)ccc1OCC1COC1 (stereo not shown) [Example 154, N-(4-chlorophenyl)-2-(3-methoxy-4-(oxetan-3-ylmethoxy)phenyl)cyclopropane-1-carboxamide] | > 300
31 | 18.7 |  | COc1cc(C2CC2C(=O)Nc2ccccc2Cl)ccc1OCC1COC1 (stereo not shown) [Example 155, N-(2-chlorophenyl)-2-(3-methoxy-4-(oxetan-3-ylmethoxy)phenyl)cyclopropane-1-carboxamide] | 196
32 | 17.8 |  | COc1ccc(C2CC2C(=O)Nc2cccc(Cl)c2)cc1OCc1cnn(C)c1 (stereo not shown) [Example 156, N-(3-chlorophenyl)-2-(4-methoxy-3-((1-methyl-1H-pyrazol-4-yl)methoxy)phenyl)cyclopropane-1-carboxamide] | > 100
33 | 12.6 |  | COc1ccc(C2CC2C(=O)Nc2ccccc2Cl)cc1OCc1cnn(C)c1 (stereo not shown) [Example 157] | 45.3
34 | 25.9 |  | COc1ccc(C2CC2C(=O)Nc2cccc(S(C)(=O)=O)c2)cc1OCc1cnn(C)c1 (stereo not shown) [Example 158, 2-(4-methoxy-3-((1-methyl-1H-pyrazol-4-yl)methoxy)phenyl)-N-(3-(methylsulfonyl)phenyl)cyclopropane-1-carboxamide] | 68.8
35 | 2.43 |  | COc1ccc(/C=C/C(=O)Nc2ccccc2Cl)cc1OCc1cnn(C)c1 [Example 159, (E)-N-(2-chlorophenyl)-3-(4-methoxy-3-((1-methyl-1H-pyrazol-4-yl)methoxy)phenyl)acrylamide] | > 10
36 | 30.4 |  | COc1ccc(/C=C/C(=O)Nc2cccc(Cl)c2)cc1OCc1cnn(C)c1 [Example 160, (E)-N-(3-chlorophenyl)-3-(4-methoxy-3-((1-methyl-1H-pyrazol-4-yl)methoxy)phenyl)acrylamide] | > 300
